Measurements: ChEMBL document CHEMBL3885861, “Open TG-GATES”

Species: Rattus norvegicus
Assay: Open TG-GATES - Regimen: Daily Repeat
Format: toxicity, organism-based, Sprague-Dawley
Set-up: regimen Daily Repeat, gender Male, age 6 weeks
Details: in vivo, sc, 0.2 mg/kg, route subcutaneous injection, dose 200 ug/Kg, dose level High; for APTT / Bas / Eos / Fbg / Hb / Ht / Lym / MCH / MCHC / MCV / Mono / Neu / PT / Plat / RBC / Ret / WBC: tissue Blood
[1] = 72 h, tissue Kidney, time 3 day
[2] = 72 h, tissue Plasma, time 3 day

## CC(=O)O.N=C(N)NCCC[C@@H](NC(=O)[C@@H]1CCCN1C(=O)[C@@H]1CSSCCC(=O)N[C@@H](Cc2ccc(O)cc2)C(=O)N[C@@H](Cc2ccccc2)C(=O)N[C@@H](CCC(N)=O)C(=O)N[C@@H](CC(N)=O)C(=O)N1)C(=O)NCC(N)=O [DESMOPRESSIN ACETATE]
72 h, time 3 day
  TERMINAL_BW: 235.3 g
  APTT: 17.2 s
  Bas: 0%
  Eos: 1%
  Fbg: 258 mg/dL
  Hb: 13.4 g/dL
  Ht: 40.8%
  Lym: 67.8%
  MCH: 21.1 pg
  MCHC: 32.8%
  MCV: 64.3 fL
  Mono: 11.8%
  Neu: 18.8%
  PT: 12.2 s
  Plat: 126.8 x10_4/uL
  RBC: 635.6 x10_4/ul
  Ret: 6.8%
  WBC: 73.8 x10_2/uL
[1]
  KIDNEY_L: 1.1 g
  KIDNEY_R: 1.1 g
  KIDNEY_TOTAL: 2.2 g
72 h, tissue Liver, time 3 day
  LIVER: 10 g
[2]
  A/G: 2
  ALP: 1277.4 IU/L
  ALT: 32 IU/L
  AST: 69.2 IU/L
  BUN: 20 mg/dL
  CRE: 0.4 mg/dL
  Ca: 11.3 mg/dL
  Cl: 102.8 meq/L
  DBIL: 0.012 mg/dL
  GLC: 196.4 mg/dL
  IP: 7.6 mg/dL
  K: 5.5 meq/L
  LDH: 179.6 IU/L
  Na: 136 meq/L
  PL: 138.6 mg/dL
  RALB: 3.7 g/dL
  TBIL: 0.042 mg/dL
  TC: 75.6 mg/dL
  TG: 85.2 mg/dL
  TP: 5.6 g/dL
  gamma-GTP: 1 IU/L
[…], time 7 day
  TERMINAL_BW: 258.6 g
  APTT: 18.6 s
  Bas: 0%
  Eos: 1%
  Fbg: 251.8 mg/dL
  Hb: 13.6 g/dL
  Ht: 41.4%
  Lym: 75%
  MCH: 20.7 pg
  MCHC: 32.9%
  MCV: 63.1 fL
  Mono: 8.2%
  Neu: 16.2%
  PT: 13.4 s
  Plat: 122 x10_4/uL
  RBC: 656.4 x10_4/ul
  Ret: 7.3%
  WBC: 112.4 x10_2/uL
[…], time 14 day
  TERMINAL_BW: 323.7 g
  APTT: 17 s
  Bas: 0%
  Eos: 1.2%
  Fbg: 244.8 mg/dL
  Hb: 13.8 g/dL
  Ht: 42.7%
  Lym: 73.2%
  MCH: 20.5 pg
  MCHC: 32.4%
  MCV: 63.2 fL
  Mono: 8.2%
  Neu: 17.4%
  PT: 11.9 s
  Plat: 110.6 x10_4/uL
  RBC: 675.8 x10_4/ul
  Ret: 6.1%
  WBC: 104.8 x10_2/uL
[…], time 28 day
  TERMINAL_BW: 400.9 g
  APTT: 18.9 s
  Bas: 0%
  Eos: 1%
  Fbg: 260.8 mg/dL
  Hb: 15 g/dL
  Ht: 45.6%
